Measured values from publication PMC7397269, “Synthesis and Evaluation of New Coumarin Derivatives as Antioxidant, Antimicrobial, and Anti-Inflammatory Agents” (Molecules, 2020).
Converted amounts (≈) assume the structure as drawn.

Tests used:
[1] = DPPH antioxidant assay (radical scavenging); type: biochemical; conditions: mean ± SD (n = 3)
Experimental: The antioxidant effects of the synthesised compounds were assessed using the 2,2-diphenyl-1-picrylhydrazyl (DPPH) antioxidant assay. Table 1 summarises the antioxidant effects of the test samples and ascorbic acid except for compound 5b because it was produced in poor yield.
The radical scavenging activity of the synthesised compounds was measured using the DPPH microplate-based method. The absorbance was measured using a microplate/cuvette reader (Spectramax M5, Molecular Devices, San Jose, CA, USA). Reference standard ascorbic acid was utilised as the positive control for this assay. Test samples were prepared at a starting concentration of 200 μg/mL after mixing with 100 μL of 0.2 mM DPPH methanolic solution. […] Samples were incubated with DPPH in the dark for 30 min at room temperature (25 °C). The methanolic DPPH solution was prepared daily and stored in a flask covered with aluminium foil. DPPH radicals have an absorption maximum (λmax) at 515 nm, at which the absorbance values were measured and converted into a percentage of antioxidant activity.
The methanolic DPPH solution without antioxidants was used as a control, and samples in methanol alone served as a background control. IC50 was determined using GraphPad Prism 7 (GraphPad Software Inc., San Diego, CA, USA). The percent inhibition was calculated using the following Equation (1):(1) % Inhibition=100−Sample Absorbance −Sample background Absorbance/DPPH only Absorbance×100
The assay was carried out in triplicate and performed as much as possible in an area protected against light. The data points are presented as the mean ± standard deviation (SD, n = 3).

[2] = system: Staphylococcus aureus ATCC 29213; experiment: Agar well diffusion, S. aureus; type: cell-based; conditions: ATCC29213, 100 μL of 10 mg/mL in DMSO, read-out: diameter of inhibition zone, SA
Source text: (§1) The new molecules were individually tested for their antimicrobial activity in vitro against standard bacteria strains from the American Type Culture Collection (ATCC), namely, Staphylococcus aureus ATCC 29213, Bacillus subtilis ATCC 6633, Bacillus megaterium ATCC 9885 (Gram-positive), Escherichia coli ATCC 2592, and Pseudomonas aeruginosa ATCC 27,953 (Gram-negative). The compounds were also microbiologically tested against locally isolated Saccharomyces cerevisiae (yeast) and the standard Agricultural Research Service Culture Collection (NRRL) strain of the yeast-like pathogenic fungus Candida albicans NRRL Y-477. Primary screening was conducted using the agar well diffusion method using nutrient agar (NA) medium and Sabourand dextrose agar (SDA) medium for the tested pathological bacteria and yeast, respectively. […].
(§2) Antimicrobial tests were conducted via the agar well diffusion method using 100 μL of suspension containing 1 × 10^8 CFU/mL pathological tested bacteria and 1 × 10^6 CFU/mL yeast spread on NA and SDA, respectively. After the media cooled and solidified, wells (10 mm in diameter) were made in the solidified agar and loaded with 100 μL of the tested compound solution prepared by dissolving 10 mg of the chemical compound in 1 mL dimethyl sulfoxide (DMSO). The inoculated plates were then incubated for 24 h at 37 °C for bacteria and yeast growth. DMSO served as negative control. Ciprofloxacin (10 mg/mL) and ketoconazole (10 mg/mL) were used as standards for antibacterial and antifungal activity, respectively. After incubation, antimicrobial activity was evaluated by measuring the zone of inhibition against the test organisms and compared with that of the standard. Antimicrobial activities were expressed as the diameter of the inhibition zone (IZ) in mm. The experiment was carried out in triplicate and the average zone of inhibition was calculated.

[3] = system: Bacillus subtilis ATCC 6633; experiment: Agar well diffusion, B. subtilis; type: cell-based; conditions: ATCC6633, 100 μL of 10 mg/mL in DMSO, read-out: diameter of inhibition zone, BS
Source text: as §1, §2

[4] = system: Bacillus megaterium ATCC 9885; experiment: Agar well diffusion, B. megaterium; type: cell-based; conditions: Priestia megaterium, ATCC9885, 100 μL of 10 mg/mL in DMSO, read-out: diameter of inhibition zone, BM
Source text: as §1, §2

[5] = system: Escherichia coli ATCC 2592; experiment: Agar well diffusion, E. coli; type: cell-based; conditions: ATCC2592, 100 μL of 10 mg/mL in DMSO, read-out: diameter of inhibition zone, EC
Source text: as §1, §2

[6] = system: Pseudomonas aeruginosa ATCC 27,953; experiment: Agar well diffusion, P. aeruginosa; type: cell-based; conditions: ATCC27, 100 μL of 10 mg/mL in DMSO, read-out: diameter of inhibition zone, PA
Source text: as §1, §2

[7] = system: Saccharomyces cerevisiae local isolate; experiment: Agar well diffusion, S. cerevisiae; type: cell-based; conditions: well diffusion, 100 μL of 10 mg/mL in DMSO, S. cerevisiae, read-out: diameter of inhibition zone, SC
Source text: as §1, §2

[8] = system: Candida albicans NRRL Y-477; experiment: Agar well diffusion, C. albicans; type: cell-based; conditions: NRRLY477, 100 μL of 10 mg/mL in DMSO, read-out: diameter of inhibition zone, CA
Source text: as §1, §2

[9] = system: Staphylococcus aureus ATCC 29213; experiment: MIC, two-fold serial dilution, S. aureus; type: cell-based; conditions: ATCC29213, read-out: Minimum inhibitory concentration, SA
Source text: as §1
(§3) The bacteriostatic activity of the active compounds (having IZ > 16 mm) was then evaluated using the two-fold serial dilution technique. Two-fold serial dilutions of the tested compounds solutions were prepared using the proper nutrient broth to reach final concentrations of 1000, 500, 250, and 125 μg/mL. The tubes were then inoculated with the test microorganisms grown in their suitable broth at 37 °C for 24 h (1 × 10^8 CFU/mL for bacteria and 1 × 10^6 CFU/mL of yeast), 0.1 mL of the above inoculum was administered per 5 mL, and the tubes were incubated at 37 °C for 24 h. The lowest concentration showing no growth was taken as the MIC.

[10] = system: Bacillus subtilis ATCC 6633; experiment: MIC, two-fold serial dilution, B. subtilis; type: cell-based; conditions: ATCC6633, read-out: Minimum inhibitory concentration, BS
Source text: as §1, §3

[11] = system: Bacillus megaterium ATCC 9885; experiment: MIC, two-fold serial dilution, B. megaterium; type: cell-based; conditions: Priestia megaterium, ATCC9885, read-out: Minimum inhibitory concentration, BM
Source text: as §1, §3

[12] = system: Escherichia coli ATCC 2592; experiment: MIC, two-fold serial dilution, E. coli; type: cell-based; conditions: ATCC2592, read-out: Minimum inhibitory concentration, EC
Source text: as §1, §3

[13] = system: Pseudomonas aeruginosa ATCC 27,953; experiment: MIC, two-fold serial dilution, P. aeruginosa; type: cell-based; conditions: ATCC27, read-out: Minimum inhibitory concentration, PA
Source text: as §1, §3

[14] = system: Saccharomyces cerevisiae local isolate; experiment: MIC, two-fold serial dilution, S. cerevisiae; type: cell-based; conditions: two-fold serial dilution, S. cerevisiae, read-out: Minimum inhibitory concentration, SC
Source text: as §1, §3

[15] = system: Candida albicans NRRL Y-477; experiment: MIC, two-fold serial dilution, C. albicans; type: cell-based; conditions: NRRLY477, read-out: Minimum inhibitory concentration, CA
Source text: as §1, §3

[16] = system: trypsin; experiment: Proteinase-inhibitory activity; type: biochemical; conditions: 250 µg/mL; mean ± SD (n = 3)
Experimental: The newly synthesised compounds were individually tested for their in vitro anti-inflammatory activity against proteinase enzyme. […] This test was performed at the Pharmacology Department, Medical Research Division, National Research Centre, Cairo, Egypt. Furthermore, compounds 2–8 were evaluated for their COX1/COX2 inhibitory activities.
The test was performed according to El-Serwy et al. with minor modifications. The reaction mixture (2 mL) contained 0.06 mg trypsin, 20 mM Tris HCl buffer (pH 7.4), and 1 mL test sample (250 µg/mL for each compound). After incubating for 5 min, 1 mL of 0.8% (w/v) casein was added. The mixture was incubated for an additional 20 min. The reaction was arrested by adding 1 mL of 10% perchloric acid. The cloudy suspension was centrifuged, and the absorbance of the supernatant was read at 280 nm. Reference standard aspirin was used as the positive control. The experiment was performed in triplicate. The percent inhibition of protein denaturation was calculated using the following Equation (2):(2) % Inhibition=100−A control −A test/A control×100 where Acontrol and Atest represent the absorbance of the control reaction without and with the sample, respectively.

[17] = system: tested microorganisms; experiment: MIC, summary over the tested microorganisms; type: cell-based; conditions: two-fold serial dilution; read-out: MIC against one or more tested microorganisms
Source text: as §1, §3

IC50 [1]	MIC [9]	MIC [10]	MIC [11]	MIC [12]	MIC [13]	MIC [14]	MIC [15]	melting point	SMILES	zone of inhibition at 10000 µg/mL [2]	zone of inhibition at 10000 µg/mL [3]	zone of inhibition at 10000 µg/mL [4]	zone of inhibition at 10000 µg/mL [5]	zone of inhibition at 10000 µg/mL [6]	zone of inhibition at 10000 µg/mL [7]	zone of inhibition at 10000 µg/mL [8]	% Inhibition (proteinase) [16]	MIC [17]
— ((—): inactive (IC50 > 200 μg/mL))	500 µg/mL (≈ 1020 µM)	500 µg/mL (≈ 1020 µM)	250 µg/mL (≈ 509 µM)	250 µg/mL (≈ 509 µM)	250 µg/mL (≈ 509 µM)	500 µg/mL (≈ 1020 µM)	500 µg/mL (≈ 1020 µM)	> 300 °C	COc1ccc(/C=C/C(=O)c2ccc(NS(=O)(=O)c3c(O)c4cc(C)ccc4oc3=O)cc2)cc1 [9f, (E)-4-Hydroxy-N-(4-(3-(4-methoxyphenyl)acryloyl)phenyl)-6-methyl-2-oxo-2H-chromene-3-sulfonamide]	25 mm	25 mm	26 mm	26 mm	28 mm	26 mm	24 mm	21.7 ± 7.6%	–
— ((—): inactive (IC50 > 200 μg/mL))	500 µg/mL (≈ 987 µM)	500 µg/mL (≈ 987 µM)	500 µg/mL (≈ 987 µM)	250 µg/mL (≈ 494 µM)	250 µg/mL (≈ 494 µM)	500 µg/mL (≈ 987 µM)	500 µg/mL (≈ 987 µM)	220 °C	Cc1ccc2oc(=O)c(S(=O)(=O)Nc3ccc(C(=O)/C=C/c4ccc([N+](=O)[O-])cc4)cc3)c(O)c2c1 [9b, (E)-4-Hydroxy-6-methyl-N-(4-(3-(4-nitrophenyl)acryloyl)phenyl)-2-oxo-2H-chromene-3-sulfonamide]	22 mm	24 mm	25 mm	26 mm	26 mm	25 mm	23 mm	–	–
— ((—): inactive (IC50 > 200 μg/mL))	500 µg/mL (≈ 977 µM)	500 µg/mL (≈ 977 µM)	500 µg/mL (≈ 977 µM)	500 µg/mL (≈ 977 µM)	500 µg/mL (≈ 977 µM)	250 µg/mL (≈ 488 µM)	500 µg/mL (≈ 977 µM)	> 300 °C	COc1ccc(/C=C/C(=O)c2ccc(NS(=O)(=O)c3c(O)c4cc(Cl)ccc4oc3=O)cc2)cc1 [9e, (E)-6-Chloro-4-hydroxy-N-(4-(3-(4-methoxyphenyl)acryloyl)phenyl)-2-oxo-2H-chromene-3-sulfonamide]	23 mm	21 mm	20 mm	21 mm	21 mm	29 mm	23 mm	22.83 ± 4.88%	–

SMILES	IC50 [1]	MIC [9]	MIC [10]	MIC [11]	MIC [12]	MIC [13]	MIC [14]	MIC [15]	melting point	zone of inhibition at 10000 µg/mL [2]	zone of inhibition at 10000 µg/mL [3]	zone of inhibition at 10000 µg/mL [4]	zone of inhibition at 10000 µg/mL [5]	zone of inhibition at 10000 µg/mL [6]	zone of inhibition at 10000 µg/mL [7]	zone of inhibition at 10000 µg/mL [8]	% Inhibition (proteinase) [16]	MIC [17]
O=C(/C=C/c1ccc(Cl)cc1)c1ccc(NS(=O)(=O)c2c(O)c3cc(Cl)ccc3oc2=O)cc1 [9c, (E)-6-Chloro-N-(4-(3-(4-chlorophenyl)acryloyl)phenyl)-4-hydroxy-2-oxo-2H-chromene-3-sulfonamide]	— ((—): inactive (IC50 > 200 μg/mL))	250 µg/mL (≈ 484 µM)	250 µg/mL (≈ 484 µM)	250 µg/mL (≈ 484 µM)	250 µg/mL (≈ 484 µM)	250 µg/mL (≈ 484 µM)	125 µg/mL (≈ 242 µM)	125 µg/mL (≈ 242 µM)	157 to 159 °C	28 mm	29 mm	30 mm	30 mm	30 mm	31 to 32 mm	30 mm	17.6 ± 6.86%	125 µg/mL (≈ 242 µM)
Cc1ccc2oc(=O)c(S(=O)(=O)Nc3ccc(C(=O)/C=C/c4ccc(Cl)cc4)cc3)c(O)c2c1 [9d, (E)-N-(4-(3-(4-chlorophenyl)acryloyl)phenyl)-4-hydroxy-6-methyl-2-oxo-2H-chromene-3-sulfonamide]	— ((—): inactive (IC50 > 200 μg/mL))	250 µg/mL (≈ 504 µM)	250 µg/mL (≈ 504 µM)	250 µg/mL (≈ 504 µM)	250 µg/mL (≈ 504 µM)	250 µg/mL (≈ 504 µM)	125 µg/mL (≈ 252 µM)	125 µg/mL (≈ 252 µM)	141 to 143 °C	28 mm	29 mm	29 mm	38 mm	29 mm	31 to 32 mm	30 mm	31.88 ± 3.82%	125 µg/mL (≈ 252 µM)
